Laboratory results from US8110703B2, “Retinoid derivative and pharmaceutical composition and use thereof” (Anhui Medical University, priority 2008, dated 2012).
Marks after values point to notes of the source that are not given here.

Legend:
Format in all cases: cell-based
HepG2 cells [1] = assay: Cell cycle and apoptosis by flow cytometry, HepG2; conditions: HepG2, flow cytometry
A549 lung cancer cells = assay: MTT cell growth and proliferation experiment, A549; set-up: key to Inhibition Rate: (control OD570 − test OD570)/control OD570, as fraction; conditions: concentration not given; for Inhibition Rate: fraction
Protocol: (§1) 1.1 Reagents 12 retinoic acid derivatives with the final concentrations of 1 ug/ml, 5 ug/ml and 10 ug/ml are synthesized by the Pharmaceutical College of Anhui Medical University using DMSO and anhydrous ethanol, separately packaged for storage at −20° C. and kept out of the light when used, and the final concentration of DMSO is less than 0.1%. MTT is purchased from Sigma Corp. The Coulter DNA detection kit is presented by the Central Lab of Anhui Provincial Hospital. AFP and γ-GT are provided by the Clinical Lab of No. 105 Hospital of PLA. Apoptosis-Hoechst staining kit is purchased from Beyotime Company.
(§2) 1.2 Cell Culture A549, and HpeG2 cells are stored by our lab. Cell growth condition: DMEM (from GIBICO Company) culture solution is added with 10% of calf serum (purchased from the Hangzhou Sijiqing Biological Engineering Material Co., Ltd.) to culture in a cell culture incubator (37° C., 5% CO2) with saturated humidity.
(§3) 1.3 Cell Growth and Proliferation Experiments MTT process is used. Cells in the logarithmic phase are picked and seeded on a 96-hole culture board with a cell concentration of 5×10^7/L. Each hole of the board is 200 ul. The next day after the adherence, the original solution is discarded, and the culture solution is added. The cells are divided into 1 ug/ml retinoic acid derivative groups, 5 ug/ml retinoic acid derivative groups, 10 ug/ml retinoic acid derivative groups, blank control groups, cell control groups, solvent control groups (1‰ DMSO and anhydrous ethanol) (17 in total) according to the concentrations thereof, incubated for 3d, added with MTT (5 g/L) of 20 ul/hole for incubation at 37° C. for 4 h. The original solution is carefully discarded and dried, and DMSO of 20 ul/hole is added to dissolve crystals, followed by vibrating for 10 min and determining the OD value at 570 nm. Each concentration is corresponding to 5 holes, and each group calculates the average of 3 experiments to calculate the inhibition rate to the cell growth according to the optical density (OD) average of each hole in each group and the following equation: inhibition rate %=(control hole OD570−experimental hole OD570)/control hole OD5700*100%. The process above is repeated for three times. The second experiment takes the maximum concentration (10 […]) for culture respectively for 1, 2, 3 and 7 days and repeat for three times.

NB4 cells = assay: Cell cycle analysis by flow cytometer, NB4; set-up: S %: dose or concentration left out as unconfirmed; conditions: 72 h
Protocol: (§4) Retinoic acid derivatives and fenretinide are prepared as a storage solution of 10 mg/mL by anhydrous ethanol and stored at […] and kept out of light.
(§5) NB4 cells and K562 cells are inoculated with an initial concentration of 2*10^5/ml in the RPMI1640 culture solution having 10% of calf serum (FBS), 100 u/ml of penicillin, 100 Lg/ml of streptomycin and 2 mmol/L of glutamine for suspension culture (37° C., 5% CO2). Change the solution every 2-3 days.
(§6) For the cells above acted by the retinoic acid derivatives and fenretinide ([…]) for 72 h, about 10^6 of them are collected, washed by PBS twice, fixed by 70% of cold ethanol over 24 h, washed by PBS twice, added with 5 ug/ml of propidium iodide for staining and detected by a flow cytometer from which the data are analyzed and processed by the multi-cycle software.

K562 cells = assay: Cell cycle analysis by flow cytometer, K562; set-up: S %: dose or concentration left out as unconfirmed; conditions: 72 h
Protocol: as §4, §5, §6

liver cancer HepG2 cells = assay: MTT cell growth and proliferation experiment, HepG2; set-up: key to Inhibition Rate: (control OD570 − test OD570)/control OD570, as fraction; conditions: concentration not given; for Inhibition Rate: fraction
Protocol: as §1, §2, §3

A549 cells = assay: Differentiation index: CEA secretory volume of A549 cells; conditions: A549 culture supernatant, 10 ug/ml, 3 d
Protocol: 1.6 Detection of Differentiation Index The cultured A549 cells are randomly divided into 6 10 μg/ml drug groups, cell control groups, solvent control groups (DMSO and ethanol) and 10 μg/ml fenretinide control groups (11 in total). The control groups and drug groups are cultured for 3 days to collect respective 3 tubes of cell culture solutions which are centrifugated at a speed of 4000 r/min for 5 min to take the supernatant and detect the CEA content of the kit by using enzyme kinetics and CEA detection.

HepG2 cells [2] = assay: AFP secretory volume of HepG2 cells; conditions: HepG2 cells
HepG2 cells [3] = assay: γ-GT specific activity of HepG2 cells
[4] = A549, MTT time gradient, in DMSO, 1 d
[5] = A549, MTT time gradient, in DMSO, 2 d
[6] = A549, MTT time gradient, in DMSO, 3 d
[7] = A549, MTT time gradient, in DMSO, 7 d
[8] = A549, MTT time gradient, in ethanol, 1 d
[9] = A549, MTT time gradient, in ethanol, 2 d
[10] = A549, MTT time gradient, in ethanol, 3 d
[11] = A549, MTT time gradient, in ethanol, 7 d
[12] = A549, MTT, 3 d, Table 1 control drug in DMSO
[13] = A549, MTT, 3 d, Table 1 control drug in ethanol
[14] = HepG2, MTT time gradient, in DMSO, 1 d
[15] = HepG2, MTT time gradient, in DMSO, 2 d
[16] = HepG2, MTT time gradient, in DMSO, 3 d
[17] = HepG2, MTT time gradient, in DMSO, 7 d
[18] = HepG2, MTT time gradient, in ethanol, 1 d
[19] = HepG2, MTT time gradient, in ethanol, 2 d
[20] = HepG2, MTT time gradient, in ethanol, 3 d
[21] = HepG2, MTT, 3 d, Table 3 control drug in DMSO
[22] = HepG2, MTT, 3 d, Table 3 control drug in ethanol
[23] = HepG2, Table 5 repeat MTT, 3 days, DMSO
[24] = HepG2, Table 5 repeat MTT, 3 days, ethanol

## CC1=C(/C=C/C(C)=C/C=C/C(C)=C/C(=O)Nc2ccc(O)cc2)C(C)(C)CCC1 [Fenretinide, reference compound]
HepG2 cells [1]; in DMSO
  Apoptosis Rate (%): 5.71%
  G0-G1 (%): 67.3%
  G2-M (%): 7.64%
  S %: 19.8%
HepG2 cells [1]; in ethanol
  Apoptosis Rate (%): 10.6%
  G0-G1 (%): 60.0%
  G2-M (%): 5.69%
  S %: 24.1%
A549 lung cancer cells; [4]
  OD Value (x ± s): 0.883 ± 0.062
  Inhibition Rate: 0.037
A549 lung cancer cells; [5]
  OD Value (x ± s): 1.360 ± 0.052
  Inhibition Rate: 0.070
A549 lung cancer cells; [6]
  OD Value (x ± s): 0.845 ± 0.034
  Inhibition Rate: 0.089
A549 lung cancer cells; [7]
  OD Value (x ± s): 1.835 ± 0.030
  Inhibition Rate: 0.115
A549 lung cancer cells; [8]
  OD Value (x ± s): 0.887 ± 0.057
  Inhibition Rate: 0.033
A549 lung cancer cells; [9]
  OD Value (x ± s): 1.333 ± 0.046
  Inhibition Rate: 0.089
A549 lung cancer cells; [10]
  OD Value (x ± s): 0.836 ± 0.034
  Inhibition Rate: 0.099
A549 lung cancer cells; [11]
  OD Value (x ± s): 1.851 ± 0.030
  Inhibition Rate: 0.108
A549 lung cancer cells; [12]
  OD Value (x ± s): 1.724 ± 0.080
  Inhibition Rate: 0.076
A549 lung cancer cells; [13]
  OD Value (x ± s): 1.710 ± 0.056
  Inhibition Rate: 0.083
NB4 cells
  G1 %: 63.25%
  G2 %: 4.03%
  S %: 33.72%
K562 cells
  G1 %: 33.5%
  G2 %: 9.0%
  S %: 57.5%
Liver cancer HepG2 cells; [14]
  OD Value (x ± s): 1.61 ± 0.16
  Inhibition Rate: 0.09
Liver cancer HepG2 cells; [15]
  OD Value (x ± s): 1.37 ± 0.07
  Inhibition Rate: 0.19
Liver cancer HepG2 cells; [16]
  OD Value (x ± s): 1.07 ± 0.20
  Inhibition Rate: 0.13
Liver cancer HepG2 cells; [17]
  OD Value (x ± s): 1.17 ± 0.06
  Inhibition Rate: 0.14
Liver cancer HepG2 cells; [18]
  OD Value (x ± s): 1.67 ± 0.05
  Inhibition Rate: 0.05
Liver cancer HepG2 cells; [19]
  OD Value (x ± s): 1.31 ± 0.09
  Inhibition Rate: 0.22
Liver cancer HepG2 cells; [20]
  OD Value (x ± s): 1.06 ± 0.09
  Inhibition Rate: 0.14
Liver cancer HepG2 cells; [21]
  OD Value (x ± s): 1.27 ± 0.25
  Inhibition Rate: 0.25
Liver cancer HepG2 cells; [22]
  OD Value (x ± s): 1.28 ± 0.21
  Inhibition Rate: 0.24
Liver cancer HepG2 cells; [23]
  OD Value (x ± s): 1.469 ± 0.078
  Inhibition Rate: 0.322*
Liver cancer HepG2 cells; [24]
  OD Value (x ± s): 1.422 ± 0.123
  Inhibition Rate: 0.343*
A549 cells; DMSO
  CEA: 4.5 µg/L
A549 cells; ethanol
  CEA: 4.3 µg/L
HepG2 cells [2]; DMSO
  AFP: 15.1 µg/L
HepG2 cells [2]; ethanol
  AFP: 14.9 µg/L
HepG2 cells [3]; DMSO
  γ-GT: 66.6 ± 0.5 U/L
HepG2 cells [3]; ethanol
  γ-GT: 61.0 ± 1.0 U/L
